# Laboratory results reported in paper doi:10.1101/2023.10.03.560722, “Drug Discovery in Low Data Regimes: Leveraging a Computational Pipeline for the Discovery of Novel SARS-CoV-2 Nsp14-MTase Inhibitors” (bioRxiv, 2024).
# Read-outs that look alike come from different tables or passages of the source.
# Key:
# nsp14 = nsp14 (Severe acute respiratory syndrome coronavirus 2, UniProt P0DTD1); test: surface plasmon resonance (SPR) binding to immobilized full-length biotinylated nsp14; parameters: species or system SARS-CoV-2; details: n = 3
# Protocol: For Surface Plasmon Resonance (SPR), the full-length biotinylated nsp14 was immobilized on the flow cell of a SA sensor chip in 1x HBS-EP buffer, achieving a response of 8000 RU. The assay was performed using the same buffer but with 2% DMSO added. Single-cycle kinetics were employed with a contact time of 60 seconds and a dissociation time of 120 seconds, at a flow rate of 75 µL/min. NSC620333 was tested at a concentration of 10 µM as the highest concentration, and a dilution factor of 0.25 was used to yield five different concentrations.
# PRMT3 = PRMT3 (Homo sapiens, UniProt O60678); test: human MTase selectivity panel; format: biochemical
# PRMT6 = PRMT6 (Homo sapiens, UniProt Q96LA8); test: human MTase selectivity panel; format: biochemical
# SETD2 = SETD2 (Homo sapiens, UniProt Q9BYW2); test: human MTase selectivity panel; format: biochemical
# EZH2 = EZH2 (Homo sapiens, UniProt Q15910); test: human MTase selectivity panel; format: biochemical
# BCDIN3D = target: T1, BCDIN3D (Homo sapiens, UniProt Q7Z5W3); test: human MTase selectivity panel; format: biochemical
# T1 sequence (Q7Z5W3 1-292): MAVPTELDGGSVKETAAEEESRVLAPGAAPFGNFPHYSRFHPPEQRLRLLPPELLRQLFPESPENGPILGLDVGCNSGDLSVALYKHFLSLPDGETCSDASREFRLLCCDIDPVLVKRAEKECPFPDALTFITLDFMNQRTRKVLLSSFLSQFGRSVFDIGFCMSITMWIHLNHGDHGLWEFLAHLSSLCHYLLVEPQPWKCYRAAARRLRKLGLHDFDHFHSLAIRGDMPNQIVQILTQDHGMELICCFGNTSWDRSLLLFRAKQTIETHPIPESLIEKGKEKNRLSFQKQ
# NSD1 = NSD1 (Homo sapiens, UniProt Q96L73); test: human MTase selectivity panel; format: biochemical
# [1] = average ± SD, read-out: Activity (%) at 10 µM Average
# [2] = read-out: Activity (%) at 10 µM Replicate 1
# [3] = read-out: Activity (%) at 10 µM Replicate 2
# [4] = read-out: Activity (%) at 10 µM Replicate 3
# Chain of PRMT3 (O60678 whole entry): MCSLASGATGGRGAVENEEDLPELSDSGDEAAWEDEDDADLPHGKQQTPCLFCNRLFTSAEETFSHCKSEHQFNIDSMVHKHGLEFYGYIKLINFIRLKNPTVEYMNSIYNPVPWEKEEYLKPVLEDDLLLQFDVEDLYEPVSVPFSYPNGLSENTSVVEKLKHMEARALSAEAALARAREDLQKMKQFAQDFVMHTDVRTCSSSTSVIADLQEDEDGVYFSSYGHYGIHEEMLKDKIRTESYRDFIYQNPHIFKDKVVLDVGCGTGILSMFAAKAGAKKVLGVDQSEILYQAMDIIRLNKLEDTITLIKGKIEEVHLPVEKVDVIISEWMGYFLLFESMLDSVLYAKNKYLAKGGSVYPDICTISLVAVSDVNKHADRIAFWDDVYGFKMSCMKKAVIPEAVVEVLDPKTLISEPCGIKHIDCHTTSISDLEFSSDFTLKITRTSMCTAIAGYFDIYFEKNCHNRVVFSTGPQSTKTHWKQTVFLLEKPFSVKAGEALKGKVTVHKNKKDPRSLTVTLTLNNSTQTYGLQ
# Chain of EZH2 (Q15910 whole entry): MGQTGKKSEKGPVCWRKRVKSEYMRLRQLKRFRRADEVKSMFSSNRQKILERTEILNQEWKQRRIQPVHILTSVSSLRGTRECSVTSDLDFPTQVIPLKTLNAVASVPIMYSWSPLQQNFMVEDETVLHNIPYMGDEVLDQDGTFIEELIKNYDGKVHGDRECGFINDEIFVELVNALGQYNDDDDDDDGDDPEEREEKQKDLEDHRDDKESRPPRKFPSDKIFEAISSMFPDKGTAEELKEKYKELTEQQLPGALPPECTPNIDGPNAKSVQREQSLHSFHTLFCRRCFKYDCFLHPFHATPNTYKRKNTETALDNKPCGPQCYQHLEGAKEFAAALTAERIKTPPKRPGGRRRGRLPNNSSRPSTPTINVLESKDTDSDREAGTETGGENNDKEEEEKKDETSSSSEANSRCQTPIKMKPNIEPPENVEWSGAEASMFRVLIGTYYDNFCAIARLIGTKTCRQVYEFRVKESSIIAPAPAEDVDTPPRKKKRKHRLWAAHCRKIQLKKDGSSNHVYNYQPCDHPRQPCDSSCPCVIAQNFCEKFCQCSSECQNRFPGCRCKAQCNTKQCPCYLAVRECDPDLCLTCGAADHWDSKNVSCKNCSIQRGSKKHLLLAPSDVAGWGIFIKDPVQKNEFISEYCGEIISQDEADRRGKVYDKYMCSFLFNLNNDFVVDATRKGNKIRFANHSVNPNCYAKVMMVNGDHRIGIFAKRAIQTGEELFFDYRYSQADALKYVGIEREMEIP
# Chain of EZH2 (O75530 whole entry partner): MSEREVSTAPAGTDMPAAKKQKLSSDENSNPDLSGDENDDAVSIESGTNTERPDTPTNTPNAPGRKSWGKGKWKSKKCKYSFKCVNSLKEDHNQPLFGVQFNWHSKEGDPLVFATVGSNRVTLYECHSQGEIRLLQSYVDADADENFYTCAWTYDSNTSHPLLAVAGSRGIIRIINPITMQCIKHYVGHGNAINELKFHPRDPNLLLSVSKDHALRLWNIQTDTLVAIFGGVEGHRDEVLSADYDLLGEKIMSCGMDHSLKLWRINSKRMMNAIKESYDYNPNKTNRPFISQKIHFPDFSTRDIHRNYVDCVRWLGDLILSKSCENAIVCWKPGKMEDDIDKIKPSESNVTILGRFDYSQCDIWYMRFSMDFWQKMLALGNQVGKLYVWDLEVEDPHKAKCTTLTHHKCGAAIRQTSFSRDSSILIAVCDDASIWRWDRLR
# Chain of EZH2 (Q15022 whole entry partner): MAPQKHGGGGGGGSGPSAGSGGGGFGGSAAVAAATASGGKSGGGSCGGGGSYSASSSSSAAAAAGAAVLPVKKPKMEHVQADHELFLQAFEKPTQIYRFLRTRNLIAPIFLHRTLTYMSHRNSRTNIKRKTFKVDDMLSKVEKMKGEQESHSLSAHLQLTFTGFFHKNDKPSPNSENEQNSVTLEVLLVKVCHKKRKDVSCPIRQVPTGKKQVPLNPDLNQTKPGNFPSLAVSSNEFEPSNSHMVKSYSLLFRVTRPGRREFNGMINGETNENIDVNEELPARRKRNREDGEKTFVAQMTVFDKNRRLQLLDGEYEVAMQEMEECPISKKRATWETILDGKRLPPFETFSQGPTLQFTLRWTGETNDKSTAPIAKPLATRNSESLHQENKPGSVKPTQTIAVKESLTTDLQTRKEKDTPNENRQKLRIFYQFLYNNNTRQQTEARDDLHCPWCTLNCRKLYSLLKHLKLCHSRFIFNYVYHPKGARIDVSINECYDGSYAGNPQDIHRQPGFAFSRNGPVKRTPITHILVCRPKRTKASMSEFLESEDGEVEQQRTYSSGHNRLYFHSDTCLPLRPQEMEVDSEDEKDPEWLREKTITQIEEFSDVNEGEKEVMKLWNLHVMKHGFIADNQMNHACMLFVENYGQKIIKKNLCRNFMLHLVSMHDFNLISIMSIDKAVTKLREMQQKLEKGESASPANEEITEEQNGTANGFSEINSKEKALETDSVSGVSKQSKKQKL
# Chain of PRMT6 (Q96LA8 whole entry): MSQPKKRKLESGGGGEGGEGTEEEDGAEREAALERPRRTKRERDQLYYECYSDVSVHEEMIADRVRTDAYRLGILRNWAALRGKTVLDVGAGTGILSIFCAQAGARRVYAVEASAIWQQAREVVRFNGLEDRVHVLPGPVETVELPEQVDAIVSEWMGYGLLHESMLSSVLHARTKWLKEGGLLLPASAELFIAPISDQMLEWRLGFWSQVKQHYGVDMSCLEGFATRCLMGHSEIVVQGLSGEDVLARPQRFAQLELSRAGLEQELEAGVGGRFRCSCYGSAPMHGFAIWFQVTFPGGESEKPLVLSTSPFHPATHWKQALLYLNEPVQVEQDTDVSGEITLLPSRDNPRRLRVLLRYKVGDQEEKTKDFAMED
structure (smiles),measurement,setting,value
Nc1ncnc2c1ncn2[C@@H]1O[C@H](CSCc2ccc(Cl)cc2)[C@@H](O)[C@H]1O [NSC620333],Kd,"nsp14; SPR single-cycle kinetics, read-out: KD (kinetic fitting)",0.427 ± 0.084 µM
same,Kd,"nsp14; SPR steady-state 1:1 binding model, read-out: steady-state KD",0.544 ± 0.022 µM
same,activity at 10 µM,PRMT3; [1],79 ± 5%
same,activity at 10 µM,PRMT3; [2],75%
same,activity at 10 µM,PRMT3; [3],78%
same,activity at 10 µM,PRMT3; [4],85%
same,activity at 10 µM,PRMT6; [1],100 ± 3%
same,activity at 10 µM,PRMT6; [2],97%
same,activity at 10 µM,PRMT6; [3],99%
same,activity at 10 µM,PRMT6; [4],103%
same,activity at 10 µM,SETD2; [1],103 ± 4%
same,activity at 10 µM,SETD2; [2],99%
same,activity at 10 µM,SETD2; [3],103%
same,activity at 10 µM,SETD2; [4],107%
same,activity at 10 µM,EZH2; [1],96 ± 5%
same,activity at 10 µM,EZH2; [2],101%
same,activity at 10 µM,EZH2; [3],90%
same,activity at 10 µM,EZH2; [4],98%
same,activity at 10 µM,BCDIN3D; [1],62 ± 5%
same,activity at 10 µM,BCDIN3D; [2],57%
same,activity at 10 µM,BCDIN3D; [3],66%
same,activity at 10 µM,BCDIN3D; [4],64%
same,activity at 10 µM,NSD1; [1],104 ± 2%
same,activity at 10 µM,NSD1; [2],103%
same,activity at 10 µM,NSD1; [3],102%
same,activity at 10 µM,NSD1; [4],107%
